Results on 20 molecules are retold here after patent publication US9169224B2, “Piperazinyl and piperidinyl ureas as modulators of fatty acid amide hydrolase” (Janssen Pharmaceutica NV, priority 2004, dated 2015).

Type in all cases: biochemical
Experiment [1] addresses rat FAAH (Rattus norvegicus (Rat), UniProt P97612). Description: Assay Method 3: FAAH assay, cells transfected with rat FAAH. Particulars: T84 or rat FAAH-transfected SK-N-MC cell homogenate, 3H-AEA tracer 80 nM, 1 h at rt. The procedure: Assay Method 3 A. Transfection of Cells with Rat FAAH
(§1) A 10-cm tissue culture dish with a confluent monolayer of SK-N-MC cells was split 2 days (d) prior to transfection. Using sterile technique, the media was removed and the cells were detached from the dish by the addition of trypsin. One fifth of the cells were then placed onto a new 10-cm dish. Cells were grown in a 37° C. incubator with 5% CO2 in Minimal Essential Media Eagle with 10% Fetal Bovine Serum. After 2 d, cells were approximately 80% confluent. These cells were removed from the dish with trypsin and pelleted in a clinical centrifuge. The pellet was re-suspended in 400 μL complete media and transferred to an electroporation cuvette with a 0.4 cm gap between the electrodes. Supercoiled rat FAAH cDNA (1 μg) was added to the cells and mixed. The voltage for the electroporation was set at 0.25 kV, and the capacitance was set at 960 μF. After electroporation, the cells were diluted into complete media (10 mL) and plated onto four 10-cm dishes. Because of the variability in the efficiency of electroporation, four different concentrations of cells were plated. The ratios used were 1:20, 1:10, and 1:5, with the remainder of the cells being added to the fourth dish. The cells were allowed to recover for 24 h before adding the selection media (complete media with 600 μg/mL G418). After 10 d, dishes were analyzed for surviving colonies of cells. Dishes with well-isolated colonies were used. Cells from individual colonies were isolated and tested.
(§2) T84 frozen cell pellets or transfected SK-N-MC cells (contents of 1×15 cm culture dishes) were homogenized in 50 mL of FAAH assay buffer (125 mM Tris, 1 mM EDTA, 0.2% Glycerol, 0.02% Triton X-100, 0.4 mM Hepes, pH 9). The assay mixture consisted of 50 μL of the cell homogenate, 10 μL of the test compound, and 40 μL of anandamide [1-^3H-ethanolamine] (^3H-AEA, Perkin-Elmer, 10.3 Ci/mmol), which was added last, for a final tracer concentration of 80 nM. The reaction mixture was incubated at rt for 1 h. During the incubation, 96-well Multiscreen filter plates (catalog number MAFCNOB50; Millipore, Bedford, Mass., USA) were loaded with 25 μL of activated charcoal (Multiscreen column loader, catalog number MACL09625, Millipore) and washed once with 100 μL of MeOH. Also during the incubation, 96-well DYNEX MicroLite plates (catalog number NL510410) were loaded with 100 μL of MicroScint40 (catalog number 6013641, Packard Bioscience, Meriden, Conn., USA). After the 1 h incubation, 60 μL of the reaction mixture were transferred to the charcoal plates, which were then assembled on top of the DYNEX plates using Centrifuge Alignment Frames (catalog number MACF09604, Millipore). The unbound labeled ethanolamine was centrifuged through to the bottom plate (5 min at 2000 rpm), which was preloaded with the scintillant, as described above. The plates were sealed and left at rt for 1 h before counting on a Hewlett Packard TopCount.

For experiment [2], the target named is T1, FAAH (Homo sapiens (Human), UniProt O00519). Description: Assay Method 1: FAAH assay, T84 cell homogenate, 3H-anandamide hydrolysis. The settings on record: 3H-AEA tracer 200 nM, 1 h at rt. Summed up:
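Homogenate of human T84 cells in pH 9 Tris/EDTA buffer with 0.02% Triton X-100 was incubated with compound and 200 nM final 3H-anandamide for 1 h at rt. Released [3H]ethanolamine was separated from substrate through activated charcoal by centrifugation and quantified by scintillation counting.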

Experiment [3] concerns the target T1, FAAH. The experiment in a line: Assay Method 2: FAAH assay, cells transfected with human FAAH. The settings on record: T84 or human FAAH-transfected SK-N-MC cell homogenate, 3H-AEA tracer 80 nM, 1 h at rt. The procedure: Assay Method 2 A. Transfection of Cells with Human FAAH
as §1, with “Supercoiled human” for “Supercoiled rat”, “([…])” for “(1 μg)”
as §2, with “[…]” for “40 μL”

pIC50: −log10 of the molar value. Counter-ions that a name gives are not always drawn.

T1 sequence (O00519 whole entry): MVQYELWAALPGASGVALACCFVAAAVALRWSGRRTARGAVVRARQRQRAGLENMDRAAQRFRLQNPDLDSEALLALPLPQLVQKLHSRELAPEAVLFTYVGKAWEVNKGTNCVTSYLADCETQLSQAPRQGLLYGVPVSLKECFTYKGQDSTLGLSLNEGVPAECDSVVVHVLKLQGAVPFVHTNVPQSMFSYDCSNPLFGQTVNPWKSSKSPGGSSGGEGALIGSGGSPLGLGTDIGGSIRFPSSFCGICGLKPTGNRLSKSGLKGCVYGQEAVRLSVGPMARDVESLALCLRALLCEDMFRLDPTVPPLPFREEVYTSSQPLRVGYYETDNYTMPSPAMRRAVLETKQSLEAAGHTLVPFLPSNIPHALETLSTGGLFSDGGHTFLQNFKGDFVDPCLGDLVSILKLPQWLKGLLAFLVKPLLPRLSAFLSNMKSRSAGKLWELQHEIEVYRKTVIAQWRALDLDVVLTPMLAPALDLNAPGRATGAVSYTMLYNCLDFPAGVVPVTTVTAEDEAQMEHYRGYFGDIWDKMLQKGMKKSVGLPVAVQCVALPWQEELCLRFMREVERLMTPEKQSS
Sequence of rat FAAH (P97612 whole entry): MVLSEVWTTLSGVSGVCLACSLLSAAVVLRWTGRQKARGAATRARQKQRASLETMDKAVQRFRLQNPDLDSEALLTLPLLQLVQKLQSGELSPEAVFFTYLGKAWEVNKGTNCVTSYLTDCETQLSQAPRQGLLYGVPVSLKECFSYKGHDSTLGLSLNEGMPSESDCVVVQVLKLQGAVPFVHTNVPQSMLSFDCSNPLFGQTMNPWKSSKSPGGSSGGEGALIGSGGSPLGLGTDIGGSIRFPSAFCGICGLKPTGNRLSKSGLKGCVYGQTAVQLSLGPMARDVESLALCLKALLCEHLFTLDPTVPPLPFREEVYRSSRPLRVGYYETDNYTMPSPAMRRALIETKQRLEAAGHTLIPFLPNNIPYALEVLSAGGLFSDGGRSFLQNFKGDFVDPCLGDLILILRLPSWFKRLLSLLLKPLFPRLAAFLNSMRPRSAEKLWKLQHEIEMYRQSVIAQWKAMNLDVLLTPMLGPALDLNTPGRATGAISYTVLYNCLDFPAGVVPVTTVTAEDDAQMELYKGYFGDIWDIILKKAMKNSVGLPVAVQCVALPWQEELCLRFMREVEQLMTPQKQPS

What is called pIC50 is −log10 of the IC50, conventionally taken in molar units. With `O=C(Nc1ccccc1)N1CCN(Cc2ccc3ccccc3c2)CC1` [Example 18, 4-Naphthalen-2-ylmethyl-piperazine-1-carboxylic acid phenylamide], the pIC50 in experiment [1] is 6.58; in experiment [2], 7.77; in experiment [3], 7.64.

As to `CC(C)c1ccc(CN2CCN(C(=O)Nc3ccccc3)CC2)cc1` [Example 32, 4-(4-Isopropyl-benzyl)-piperazine-1-carboxylic acid phenylamide], the pIC50 in experiment [1] was 5.00; in experiment [2] it was 6.66; in experiment [3], 6.42.

As for `O=C(Nc1ccccc1)N1CCN(Cc2ccc3ccccc3c2O)CC1` [Example 59, 4-(1-Hydroxy-naphthalen-2-ylmethyl)-piperazine-1-carboxylic acid phenylamide], the negative logarithm of the IC50 (pIC50) is 7.30 in experiment [1], 7.68 in experiment [2] and 7.80 in experiment [3].

In the case of `O=C(Nc1ccccc1)N1CCN(Cc2cc(Br)ccc2O)CC1` [Example 34, 4-(5-Bromo-2-hydroxy-benzyl)-piperazine-1-carboxylic acid phenylamide], the pIC50 in experiment [1] was 6.39; in experiment [2], 6.54; in experiment [3], 6.48.

Take `O=C(O)c1ccc(NC(=O)N2CCN(Cc3cnc4ccccc4c3)CC2)cc1` [Example 155, 4-[(4-Quinolin-3-ylmethyl-piperazine-1-carbonyl)-amino]-benzoic acid]: the pIC50 is 5.00 in experiment [1] and 5.10 in experiment [3].

`O=C(Nc1ccccc1)N1CCN(Cc2ccc3c(c2)OC(F)(F)O3)CC1` [Example 52, 4-(2,2-Difluoro-benzo[1,3]dioxol-5-ylmethyl)-piperazine-1-carboxylic acid phenylamide]: the pIC50 was 6.54 in experiment [1], 7.06 in experiment [2] and 7.00 in experiment [3].

As for `O=C(Nc1ccc(F)cc1)N1CCN(Cc2cnc3ccccc3c2)CC1` [Example 98, 4-Quinolin-3-ylmethyl-piperazine-1-carboxylic acid (4-fluoro-phenyl)-amide], the values for the pIC50 in experiment [1], in experiment [2] and in experiment [3] were 5.19, 6.89 and 6.66, respectively.

Regarding `O=C(Nc1ccccc1)N1CCN(Cc2ccc(Br)c(Br)c2)CC1` [Example 21, 4-(3,4-Dibromo-benzyl)-piperazine-1-carboxylic acid phenylamide], the negative-log IC50 (pIC50) in experiment [1] is 6.74; in experiment [2], 7.51; in experiment [3], 7.72.

Take `COC(=O)c1ccc(NC(=O)N2CCN(Cc3cnc4ccccc4c3)CC2)cc1` [Example 107, 4-[(4-Quinolin-3-ylmethyl-piperazine-1-carbonyl)-amino]-benzoic acid methyl ester]: the negative-log IC50 (pIC50) in experiment [1] was 5.10; in experiment [3], 6.19.

As for `O=C(Nc1ccncn1)N1CCN(Cc2ccc3c(c2)OC(F)(F)O3)CC1` [Example 153, 4-(2,2-Difluoro-benzo[1,3]dioxol-5-ylmethyl)-piperazine-1-carboxylic acid pyrimidin-4-ylamide], the negative-log IC50 (pIC50) in experiment [1] is 4.22; in experiment [3], 6.00.

Consider `COC(=O)c1ccccc1NC(=O)N1CCN(Cc2cnc3ccccc3c2)CC1` [Example 105, 2-[(4-Quinolin-3-ylmethyl-piperazine-1-carbonyl)-amino]-benzoic acid methyl ester], for which the figures for the negative logarithm of the IC50 (pIC50) in experiment [1] and in experiment [3] were 5.00 and < 5.00, respectively.

Turning to `O=C(Nc1ccncc1)N1CCN(Cc2cnc3ccccc3c2)CC1` [Example 144, 4-Quinolin-3-ylmethyl-piperazine-1-carboxylic acid pyridin-4-ylamide], the pIC50 in experiment [1] is 5.00; in experiment [3], 5.70.

Consider `O=C(Nc1ccccc1)N1CCN(Cc2ccccc2O)CC1` [Example 41, 4-(2-Hydroxy-benzyl)-piperazine-1-carboxylic acid phenylamide], for which the pIC50 was 5.00 in experiment [1], 5.89 in experiment [2] and 5.52 in experiment [3].

Take `O=C(O)c1cccc(NC(=O)N2CCN(Cc3cnc4ccccc4c3)CC2)c1` [Example 141, 3-[(4-Quinolin-3-ylmethyl-piperazine-1-carbonyl)-amino]-benzoic acid (potassium salt)]: the pIC50 in experiment [1] is 5.10; in experiment [3], 5.30.

On to `O=C(Nc1ccccc1)N1CCN(Cc2cnc3ccccc3n2)CC1` [Example 156, 4-Quinoxalin-2-ylmethyl-piperazine-1-carboxylic acid phenylamide], for which the negative logarithm of the IC50 (pIC50) in experiment [1] is 5.10; in experiment [3] it was 6.08.

For the molecule `O=C(Nc1ccccn1)N1CCN(Cc2ccc3c(c2)OCO3)CC1` [Example 149, 4-Benzo[1,3]dioxol-5-ylmethyl-piperazine-1-carboxylic acid pyridin-2-ylamide], the pIC50 in experiment [1] is 5.00; in experiment [3], 5.40.

For `O=C(Nc1nccs1)N1CCN(Cc2cnc3ccccc3c2)CC1` [Example 158, 4-Quinolin-3-ylmethyl-piperazine-1-carboxylic acid thiazol-2-ylamide], the pIC50 in experiment [1] is 5.00; in experiment [3], < 5.00.

With `O=C(Nc1cccnc1)N1CCN(Cc2cnc3ccccc3c2)CC1` [Example 142, 4-Quinolin-3-ylmethyl-piperazine-1-carboxylic acid pyridin-3-ylamide], the negative logarithm of the IC50 (pIC50) is 5.40 in experiment [1] and 5.39 in experiment [3].

Consider `O=C(O)c1ccccc1NC(=O)N1CCN(Cc2cnc3ccccc3c2)CC1` [Example 140, 2-[(4-Quinolin-3-ylmethyl-piperazine-1-carbonyl)-amino]-benzoic acid (potassium salt)], for which the pIC50 is 5.00 in experiment [1] and < 5.00 in experiment [3].

Take `O=C(Nc1ccncc1)N1CCN(Cc2ccc3c(c2)OCO3)CC1` [Example 147, 4-Benzo[1,3]dioxol-5-ylmethyl-piperazine-1-carboxylic acid pyridin-4-ylamide]: the pIC50 in experiment [1] was 5.00; in experiment [3], 5.52.
